Data: the supplement of paper PMC6045584
± gives the standard deviation of the averaged measurements.

Experiments:
MDV3100 [1] = compound: T1, CNC(=O)c1ccc(N2C(=S)N(c3ccc(C#N)c(C(F)(F)F)c3)C(=O)C2(C)C)cc1F [MDV3100]; assay: area under dose-response curve of surviving fraction (unscaled, Aref=0) (surviving fraction x log10(nM)); higher = more resistant; details: exposure time: 5 days; dose range 0.5-1000 nM
Procedure, shortened: (§1)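 Tumour cell lines in 384-well plates were exposed for five days to eight inhibitor concentrations from 0.5 to 1000 nM. Viability was read by CellTiter-Glo luminescence, normalised to DMSO-only wells, in three screens per line. Dose-response survival curves were fitted to surviving fractions by 3-parameter logistic regression in the drc R package. Area under the curve is the unscaled activity area (Aref = 0) over log10 dose.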

AFATINIB [2] = compound: T2, CN(C)C/C=C/C(=O)Nc1cc2c(Nc3ccc(F)c(Cl)c3)ncnc2cc1O[C@H]1CCOC1 [AFATINIB]; assay: as above; details: exposure time: 5 days; dose range 0.5-1000 nM
Procedure, shortened: as §1

[3] = compound: Cn1cc(C2=Nc3cc(NC(=O)C(N)C4CCCCC4)cc4c3C2=CNNC4=O)cn1; assay: as above; details: exposure time: 5 days; dose range 0.5-1000 nM
Procedure, shortened: as §1

TIOGUANINE [4] = compound: T3, Nc1nc2[nH]cnc2c(=S)[nH]1 [TIOGUANINE]; assay: as above; details: exposure time: 5 days; dose range 0.5-1000 nM
Procedure, shortened: as §1

SAPACITABINE [5] = compound: T4, CCCCCCCCCCCCCCCC(=O)Nc1ccn([C@@H]2O[C@H](CO)[C@@H](O)[C@@H]2C#N)c(=O)n1 [SAPACITABINE]; assay: as above; details: exposure time: 5 days; dose range 0.5-1000 nM
Procedure, shortened: as §1

SNX-5422 [6] = compound: T5, CC1(C)CC(=O)c2c(C(F)(F)F)nn(-c3ccc(C(N)=O)c(N[C@H]4CC[C@H](OC(=O)CN)CC4)c3)c2C1 [SNX-5422]; assay: as above; details: exposure time: 5 days; dose range 0.5-1000 nM
Procedure, shortened: as §1

CANERTINIB [7] = compound: T6, C=CC(=O)Nc1cc2c(Nc3ccc(F)c(Cl)c3)ncnc2cc1OCCCN1CCOCC1 [CANERTINIB]; assay: as above; details: exposure time: 5 days; dose range 0.5-1000 nM
Procedure, shortened: as §1

BI-2536 [8] = compound: T7, CC[C@@H]1C(=O)N(C)c2cnc(Nc3ccc(C(=O)NC4CCN(C)CC4)cc3OC)nc2N1C1CCCC1 [BI-2536]; assay: as above; details: exposure time: 5 days; dose range 0.5-1000 nM
Procedure, shortened: as §1

MDV3100 [9] = compound: T1, MDV3100; assay: surviving fraction relative to DMSO-only wells; higher = less growth inhibition; details: exposure time: 5 days
Procedure, shortened: (§2)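 For each tumour cell line, log-phase cells were put into 384-well plates at 250–500 cells per well, then after 24 hours exposed continuously for five days to inhibitors at 0.5, 1, 5, 10, 50, 100, 500 and 1000 nM. Viability was assessed by CellTiter-Glo luminescence, with surviving fraction expressed relative to the median of DMSO-only wells. Lines were screened three times and retained only if replicate Pearson r exceeded 0.7 and median Z' exceeded 0.3.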

AFATINIB [10] = compound: T2, AFATINIB; assay: as above; details: exposure time: 5 days
Procedure, shortened: as §2

[11] = compound: Cn1cc(C2=Nc3cc(NC(=O)C(N)C4CCCCC4)cc4c3C2=CNNC4=O)cn1; assay: as above; details: exposure time: 5 days
Procedure, shortened: as §2

TIOGUANINE [12] = compound: T3, TIOGUANINE; assay: as above; details: exposure time: 5 days
Procedure, shortened: as §2

SAPACITABINE [13] = compound: T4, SAPACITABINE; assay: as above; details: exposure time: 5 days
Procedure, shortened: as §2

SNX-5422 [14] = compound: T5, SNX-5422; assay: as above; details: exposure time: 5 days
Procedure, shortened: as §2

CANERTINIB [15] = compound: T6, CANERTINIB; assay: as above; details: exposure time: 5 days
Procedure, shortened: as §2

BI-2536 [16] = compound: T7, BI-2536; assay: as above; details: exposure time: 5 days
Procedure, shortened: as §2

In the case of S68 BREAST, the “area under dose-response curve” value (MDV3100 [1]) is reported as 3.58, the “area under dose-response curve” value (AFATINIB [2]) is reported as 2.48 and the “area under dose-response curve” value [3] is reported as 2.05. The “area under dose-response curve” value (TIOGUANINE [4]) was 3.32, the “area under dose-response curve” value (SAPACITABINE [5]) was 1.85 and the “area under dose-response curve” value (SNX-5422 [6]) was 1.76. The “area under dose-response curve” value (CANERTINIB [7]) was 2.53, the “area under dose-response curve” value (BI-2536 [8]) was 1.03 and the surviving fraction (MDV3100 [9]; 0.5 nM) was 0.974 ± 0.2. The surviving fraction (MDV3100 [9]; 1 nM) was 1.04 ± 0.035, the surviving fraction (MDV3100 [9]; 5 nM) was 1.08 ± 0.11 and the surviving fraction (MDV3100 [9]; 10 nM) was 1.04 ± 0.027. The surviving fraction (MDV3100 [9]; 50 nM) was 1.24 ± 0.076, the surviving fraction (MDV3100 [9]; 100 nM) was 1.34 ± 0.2 and the surviving fraction (MDV3100 [9]; 500 nM) was 0.962 ± 0.21. The surviving fraction (MDV3100 [9]; 1000 nM) was 0.949 ± 0.22, the surviving fraction (AFATINIB [10]; 0.5 nM) was 0.958 ± 0.2 and the surviving fraction (AFATINIB [10]; 1 nM) was 0.976 ± 0.33. It also gave a surviving fraction (AFATINIB [10]; 5 nM) of 0.735 ± 0.085, a surviving fraction (AFATINIB [10]; 10 nM) of 0.809 ± 0.14 and a surviving fraction (AFATINIB [10]; 50 nM) of 0.656 ± 0.12. It also gave a surviving fraction (AFATINIB [10]; 100 nM) of 0.907 ± 0.14, a surviving fraction (AFATINIB [10]; 500 nM) of 0.478 ± 0.064 and a surviving fraction (AFATINIB [10]; 1000 nM) of 0.314 ± 0.055. For the same test system, the surviving fraction ([11]; 0.5 nM) was 0.693 ± 0.42, the surviving fraction ([11]; 1 nM) was 1.17 ± 0.18 and the surviving fraction ([11]; 5 nM) was 1.02 ± 0.12. The surviving fraction ([11]; 10 nM) was 0.901 ± 0.12, the surviving fraction ([11]; 50 nM) was 0.42 ± 0.048 and the surviving fraction ([11]; 100 nM) was 0.345 ± 0.041. For the same test system, the surviving fraction ([11]; 500 nM) was 0.135 ± 0.012, the surviving fraction ([11]; 1000 nM) was 0.0897 ± 0.0071 and the surviving fraction (TIOGUANINE [12]; 0.5 nM) was 1.2 ± 0.1. It also gave a surviving fraction (TIOGUANINE [12]; 1 nM) of 0.975 ± 0.046, a surviving fraction (TIOGUANINE [12]; 5 nM) of 0.981 ± 0.04 and a surviving fraction (TIOGUANINE [12]; 10 nM) of 0.941 ± 0.11. The surviving fraction (TIOGUANINE [12]; 50 nM) was 1.1 ± 0.18, the surviving fraction (TIOGUANINE [12]; 100 nM) was 1.04 ± 0.097 and the surviving fraction (TIOGUANINE [12]; 500 nM) was 1.05 ± 0.14. For the same test system, the surviving fraction (TIOGUANINE [12]; 1000 nM) was 1.04 ± 0.27, the surviving fraction (SAPACITABINE [13]; 0.5 nM) was 0.821 ± 0.029 and the surviving fraction (SAPACITABINE [13]; 1 nM) was 0.642 ± 0.021. It also gave a surviving fraction (SAPACITABINE [13]; 5 nM) of 0.675 ± 0.066, a surviving fraction (SAPACITABINE [13]; 10 nM) of 0.617 ± 0.094 and a surviving fraction (SAPACITABINE [13]; 50 nM) of 0.64 ± 0.22. The surviving fraction (SAPACITABINE [13]; 100 nM) was 0.462 ± 0.039, the surviving fraction (SAPACITABINE [13]; 500 nM) was 0.296 ± 0.032 and the surviving fraction (SAPACITABINE [13]; 1000 nM) was 0.284 ± 0.02. It also gave a surviving fraction (SNX-5422 [14]; 0.5 nM) of 0.798 ± 0.3, a surviving fraction (SNX-5422 [14]; 1 nM) of 1.09 ± 0.27 and a surviving fraction (SNX-5422 [14]; 5 nM) of 0.891 ± 0.2. The surviving fraction (SNX-5422 [14]; 10 nM) was 0.913 ± 0.18, the surviving fraction (SNX-5422 [14]; 50 nM) was 0.154 ± 0.019 and the surviving fraction (SNX-5422 [14]; 100 nM) was 0.128 ± 0.021. It also gave a surviving fraction (SNX-5422 [14]; 500 nM) of 0.06 ± 0.0035, a surviving fraction (SNX-5422 [14]; 1000 nM) of 0.0703 ± 0.0051 and a surviving fraction (CANERTINIB [15]; 0.5 nM) of 0.642 ± 0.11. For the same test system, the surviving fraction (CANERTINIB [15]; 1 nM) was 0.813 ± 0.21, the surviving fraction (CANERTINIB [15]; 5 nM) was 0.748 ± 0.3 and the surviving fraction (CANERTINIB [15]; 10 nM) was 0.793 ± 0.04. It also gave a surviving fraction (CANERTINIB [15]; 50 nM) of 1.04 ± 0.22, a surviving fraction (CANERTINIB [15]; 100 nM) of 1.01 ± 0.12 and a surviving fraction (CANERTINIB [15]; 500 nM) of 0.636 ± 0.091. For the same test system, the surviving fraction (CANERTINIB [15]; 1000 nM) was 0.425 ± 0.12, the surviving fraction (BI-2536 [16]; 0.5 nM) was 0.884 ± 0.16 and the surviving fraction (BI-2536 [16]; 1 nM) was 0.839 ± 0.12. For the same test system, the surviving fraction (BI-2536 [16]; 5 nM) was 0.343 ± 0.067, the surviving fraction (BI-2536 [16]; 10 nM) was 0.271 ± 0.039 and the surviving fraction (BI-2536 [16]; 50 nM) was 0.166 ± 0.013. The surviving fraction (BI-2536 [16]; 100 nM) was 0.116 ± 0.04, the surviving fraction (BI-2536 [16]; 500 nM) was 0.0923 ± 0.022 and the surviving fraction (BI-2536 [16]; 1000 nM) was 0.067 ± 0.015.
